The record followed here is publication PMC10785772 (Science translational medicine, 2023).

This test has as its system E. coli strain NDM-1 (ATCC:BAA-2471). Briefly: MIC against multidrug-resistant sepsis-model strain. The test is classed as cell-based.

Converted amounts (≈) assume the structure as drawn. Read-outs that look alike come from different tables or passages of the source.

The MIC is the lowest concentration that inhibits growth of the organism. The low end stands for greater potency, the high end for weaker potency. Consider `O=C(O)c1cn(C2CC2)c2cc(N3CCNCC3)c(F)cc2c1=O` [ciprofloxacin], for which the MIC (Escherichia coli, BAA2471) is > 32 µg/mL.

`C[C@@H](O)[C@H]1C(=O)N2C(C(=O)O)=C(SCCN=CN)C[C@H]12` [imipenem] returned an MIC (Escherichia coli, BAA2471) of 32 µg/mL (≈ 107 µM).

colistin yielded a minimal inhibitory concentration (MIC) of 2.5 µg/mL.
